Test system: Ehrlich Ascites-Tumorzellen
Assay: Concentration-dependent growth inhibition of Ehrlich ascites tumour cells (antiproliferative effect)
Format: cell-based
Details: Wachstumshemmung, read-out: Hemmung (%); for inhibition at 3 µM: Konzentration 3 μmolar; for inhibition at 10 µM: Konzentration 10 μmolar; for inhibition at 30 µM: Konzentration 30 μmolar; for inhibition at 100 µM: Konzentration 100 μmolar
Source text: Zur Bestimmung der cytostatischen Wirkung wurde die antiproliferative Wirkung bei Ehrlich-Ascites Tumorzellen untersucht. Dabei zeigte sich, daß die erfindungsgemäßen Verbindungen ausgezeichnete cytostatische Wirkung aufweisen. Sie können daher allein oder in Mischung mit anderen Wirksubstanzen in Form üblicher galenischer Zubereitungen als Cytostatika oder Virustatika eingesetzt werden.
Konzentrationsabhängige Wachstumshemmung von Ehrlich Ascites-Tumorzellen.

`CCCCCCCCCCCCCCCCOP(=O)(O)OP(=O)(O)OC[C@H]1O[C@@H](n2ccc(N)nc2=O)[C@H](O)[C@@H]1O` [Bsp. 1, Cytidin-5'-diphosphat-hexadekanol] gave an inhibition at 3 µM of 12%, an inhibition at 10 µM of 19% and an inhibition at 30 µM of 46%. For the same compound, the inhibition at 100 µM was 31%.
Work on `CCCCCCCCCCCCCCCCOCC(COP(=O)(O)OP(=O)(O)OC[C@H]1O[C@@H](n2ccc(N)nc2=O)[C@H](O)[C@@H]1O)OCC(F)(F)F` (stereo partly shown) [Bsp. 2, Cytidin-5'-diphosphat-1-0-hexadecyl-2-0-(2,2,2-trifluorethyl)glycerol] yielded an inhibition at 3 µM of 9.5%, an inhibition at 10 µM of 30% and an inhibition at 30 µM of 86%. The inhibition at 100 µM was 100%.
For `CCCCCCCCCCCCCCCCOCC(CCl)OP(=O)(O)OP(=O)(O)OC[C@H]1O[C@@H](n2ccc(N)nc2=O)[C@H](O)[C@@H]1O` (stereo partly shown) [Bsp. 3, Cytidin-5'-diphosphat-3-chlor-3-desoxy-1-0-hexadecylglycerol], the inhibition at 3 µM was 12%, the inhibition at 10 µM was 17% and the inhibition at 30 µM was 29%. It also gave an inhibition at 100 µM of 69%.
With `CCCCCCCCCCCCCCCCOCC(Cl)COP(=O)(O)OP(=O)(O)OC[C@H]1O[C@@H](n2ccc(N)nc2=O)[C@H](O)[C@@H]1O` (stereo partly shown) [Bsp. 4, Cytidin-5'-diphosphat-2-chlor-2-desoxy-1-0-hexadecylglycerol] the inhibition at 3 µM was 18%, the inhibition at 10 µM was 38% and the inhibition at 30 µM was 67%. For the same compound, the inhibition at 100 µM was 94%.
